From the NIST ThermoML archive (doi:10.1021/je034048e)
Numbers after ± are expanded uncertainties.

Assay: Molar enthalpy of transition or fusion
Conditions: Crystal; Adiabatic calorimetry

Molar enthalpy of transition or fusion: 37.5 ± 0.765 kcal/mol
SMILES: CCCCCCCC/C=C/CCCCCCCC(=O)OCC(COC(=O)CCCCCCC/C=C/CCCCCCCC)OC(=O)CCCCCCC/C=C/CCCCCCCC [trielaidin]
